Measurements taken from patent US3943129A, “7-Amino-3-(1,3,4-thiadiazolinylthio-methyl) cephalosporins” (SmithKline Corporation, priority 1974, dated 1976).
≈ marks a conversion by molar mass, not a printed value.

Assays:
[1] = test system: S. aureus HH 127; assay: Minimum inhibitory concentration (MIC); conditions: Staphylococcus aureus, HH127
[2] = test system: Strep. faecalis HH 34358; assay: Minimum inhibitory concentration (MIC); conditions: Enterococcus faecalis, HH34358
[3] = test system: E. coli; assay: In vivo ED50 in infected mice, oral; conditions: Escherichia coli, in Mus musculus
[4] = test system: S. aureus SK 23390; assay: Minimum inhibitory concentration (MIC); conditions: Staphylococcus aureus, SK23390
[5] = test system: Kleb. pneumonia; assay: In vivo ED50 in infected mice, oral; conditions: Mus musculus
[6] = test system: E. coli SK 12140; assay: Minimum inhibitory concentration (MIC); conditions: Escherichia coli, SK12140
[7] = test system: Pseudomonas sp. HH 63; assay: Minimum inhibitory concentration (MIC); conditions: SP.HH63
[8] = test system: Kleb. pneumo. SK 1200; assay: Minimum inhibitory concentration (MIC)
[9] = test system: E. coli SK 12140; assay: In vivo ED50 in infected mice, subcutaneous; conditions: Escherichia coli, SK12140, in Mus musculus, sc
[10] = test system: Strep. pyog. C203; assay: Minimum inhibitory concentration (MIC)
[11] = test system: E. coli HH 33779; assay: Minimum inhibitory concentration (MIC); conditions: Escherichia coli, HH33779
[12] = test system: Kleb. pneumo. SK 4200; assay: Minimum inhibitory concentration (MIC)
[13] = test system: Sal. paratyphi ATCC 12176; assay: Minimum inhibitory concentration (MIC); assay type: cell-based; conditions: Salmonella enterica
[14] = test system: Entero. aerogenes ATCC13048; assay: Minimum inhibitory concentration (MIC); conditions: Klebsiella aerogenes
[15] = test system: Staph. aurcus villaluz; assay: Minimum inhibitory concentration (MIC)
[16] = test system: Kleb. pneumo. SK 4200; assay: In vivo ED50 in infected mice, subcutaneous; conditions: Mus musculus, sc
[17] = test system: Serrantia marcescens ATCC 13880; assay: Minimum inhibitory concentration (MIC)
[18] = test system: Entero. cloaca Pa.S.L.969; assay: Minimum inhibitory concentration (MIC)
[19] = Stability in solution; assay type: physicochemical; conditions: neutral or basic pH, vs any prior art compounds that were tested
[20] = Stability to copper ion; assay type: physicochemical; conditions: vs tested prior art compounds
[21] = test system: Shig. paradys. HH 127; assay: Minimum inhibitory concentration (MIC)

SMILES	MIC [1]	MIC [2]	MIC [4]	MIC [6]	MIC [7]	MIC [8]	ED50 [9]	MIC [10]	MIC [11]	MIC [12]	MIC [13]	MIC [14]	MIC [15]	ED50 [16]	MIC [17]	MIC [18]	other results
NC(C(=O)NC1C(=O)N2C(C(=O)O)=C(CSc3n[nH]c(=O)[nH]3)CSC12)c1ccc(O)cc1 (stereo not shown) [Compound IV]	6.3 µg/mL (≈ 13.2 µM)	100 µg/mL (≈ 209 µM)	6.3 µg/mL (≈ 13.2 µM)	6.3 µg/mL (≈ 13.2 µM)	> 200 µg/mL	12.5 µg/mL (≈ 26.1 µM)	4 mg/kg	0.1 µg/mL (≈ 0.209 µM)	25 µg/mL (≈ 52.2 µM)	6.3 µg/mL (≈ 13.2 µM)	6.3 µg/mL (≈ 13.2 µM)	12.5 µg/mL (≈ 26.1 µM)	25 µg/mL (≈ 52.2 µM)	2.8 mg/kg	> 200 µg/mL	–	ED50 [3]: 9.5 mg/kg; ED50 [5]: 6.2 mg/kg
NC(C(=O)NC1C(=O)N2C(C(=O)O)=C(CSc3n[nH]c(=O)[nH]3)CSC12)c1ccccc1 (stereo not shown) [Compound I]	1.6 µg/mL (≈ 3.46 µM)	50 µg/mL (≈ 108 µM)	1.6 µg/mL (≈ 3.46 µM)	3.1 µg/mL (≈ 6.7 µM)	> 200 µg/mL	3.1 µg/mL (≈ 6.7 µM)	2.9 mg/kg	0.1 µg/mL (≈ 0.216 µM)	6.3 µg/mL (≈ 13.6 µM)	3.1 µg/mL (≈ 6.7 µM)	1.6 µg/mL (≈ 3.46 µM)	6.3 µg/mL (≈ 13.6 µM)	12.5 µg/mL (≈ 27 µM)	7 mg/kg	200 µg/mL (≈ 432 µM)	12.5 µg/mL (≈ 27 µM)	stability in solution [19]: more stable in solution at neutral or basic pH than any prior art compounds that were tested; stability to copper ion [20]: greater stability to copper ion than tested prior art compounds
CCn1c(SCC2=C(C(=O)O)N3C(=O)C(NC(=O)C(N)c4ccccc4)C3SC2)n[nH]c1=O (stereo not shown) [III]	3.1 µg/mL (≈ 6.32 µM)	25 µg/mL (≈ 51 µM)	3.1 µg/mL (≈ 6.32 µM)	12.5 µg/mL (≈ 25.5 µM)	> 200 µg/mL	6.3 µg/mL (≈ 12.8 µM)	29 mg/kg	0.1 µg/mL (≈ 0.204 µM)	12.5 µg/mL (≈ 25.5 µM)	6.3 µg/mL (≈ 12.8 µM)	3.1 µg/mL (≈ 6.32 µM)	25 µg/mL (≈ 51 µM)	25 µg/mL (≈ 51 µM)	92 mg/kg	200 µg/mL (≈ 408 µM)	25 µg/mL (≈ 51 µM)	–
Cn1c(SCC2=C(C(=O)O)N3C(=O)C(NC(=O)C(N)c4ccccc4)C3SC2)n[nH]c1=O (stereo not shown) [II]	6.3 µg/mL (≈ 13.2 µM)	50 µg/mL (≈ 105 µM)	3.1 µg/mL (≈ 6.51 µM)	12.5 µg/mL (≈ 26.2 µM)	> 200 µg/mL	6.3 µg/mL (≈ 13.2 µM)	12.5 mg/kg	0.1 µg/mL (≈ 0.21 µM)	25 µg/mL (≈ 52.5 µM)	6.3 µg/mL (≈ 13.2 µM)	3.1 µg/mL (≈ 6.51 µM)	25 µg/mL (≈ 52.5 µM)	25 µg/mL (≈ 52.5 µM)	11.5 mg/kg	> 200 µg/mL	50 µg/mL (≈ 105 µM)	–
O=C(Cc1cccs1)N[C@@H]1C(=O)N2C(C(=O)[O-])=C(C[n+]3ccccc3)CS[C@H]12 [S-I, cephaloridine, reference compound]	0.4 µg/mL (≈ 0.963 µM)	6.3 µg/mL (≈ 15.2 µM)	0.1 µg/mL (≈ 0.241 µM)	3.1 µg/mL (≈ 7.46 µM)	> 200 µg/mL	3.1 µg/mL (≈ 7.46 µM)	6 mg/kg	0.1 µg/mL (≈ 0.241 µM)	6.3 µg/mL (≈ 15.2 µM)	3.1 µg/mL (≈ 7.46 µM)	1.6 µg/mL (≈ 3.85 µM)	> 200 µg/mL	12.5 µg/mL (≈ 30.1 µM)	7.6 mg/kg	> 200 µg/mL	> 200 µg/mL	MIC [21]: 1.6 µg/mL (≈ 3.85 µM)
CC1=C(C(=O)O)N2C(=O)[C@@H](NC(=O)[C@H](N)c3ccccc3)[C@H]2SC1 [S-II, cephalexin, reference compound]	3.1 µg/mL (≈ 8.92 µM)	50 µg/mL (≈ 144 µM)	1.6 µg/mL (≈ 4.61 µM)	6.3 µg/mL (≈ 18.1 µM)	> 200 µg/mL	3.1 µg/mL (≈ 8.92 µM)	12 mg/kg	0.1 µg/mL (≈ 0.288 µM)	6.3 µg/mL (≈ 18.1 µM)	6.3 µg/mL (≈ 18.1 µM)	3.1 µg/mL (≈ 8.92 µM)	12.5 µg/mL (≈ 36 µM)	50 µg/mL (≈ 144 µM)	25 mg/kg	50 µg/mL (≈ 144 µM)	6.3 µg/mL (≈ 18.1 µM)	–
O=C(O)C1=C(CSc2n[nH]c(=S)s2)CSC2C(NC(=O)C(O)c3ccccc3)C(=O)N12 (stereo not shown) [VII]	0.8 µg/mL (≈ 1.61 µM)	25 µg/mL (≈ 50.3 µM)	0.4 µg/mL (≈ 0.805 µM)	1.6 µg/mL (≈ 3.22 µM)	> 200 µg/mL	0.8 µg/mL (≈ 1.61 µM)	21.5 mg/kg	0.2 µg/mL (≈ 0.403 µM)	3.1 µg/mL (≈ 6.24 µM)	1.6 µg/mL (≈ 3.22 µM)	0.8 µg/mL (≈ 1.61 µM)	12.5 µg/mL (≈ 25.2 µM)	12.5 µg/mL (≈ 25.2 µM)	64 mg/kg	200 µg/mL (≈ 403 µM)	–	–
Cn1c(SCC2=C(C(=O)O)N3C(=O)C(NC(=O)C(O)c4ccccc4)C3SC2)n[nH]c1=O (stereo not shown) [VI]	1.6 µg/mL (≈ 3.35 µM)	25 µg/mL (≈ 52.4 µM)	0.4 µg/mL (≈ 0.838 µM)	6.3 µg/mL (≈ 13.2 µM)	> 200 µg/mL	3.1 µg/mL (≈ 6.49 µM)	9 mg/kg	0.1 µg/mL (≈ 0.209 µM)	12.5 µg/mL (≈ 26.2 µM)	–	3.1 µg/mL (≈ 6.49 µM)	12.5 µg/mL (≈ 26.2 µM)	12.5 µg/mL (≈ 26.2 µM)	21 mg/kg	> 200 µg/mL	–	–
O=C(O)C1=C(CSc2n[nH]c(=O)[nH]2)CSC2C(NC(=O)C(O)c3ccccc3)C(=O)N12 (stereo not shown) [V]	0.8 µg/mL (≈ 1.73 µM)	50 µg/mL (≈ 108 µM)	0.4 µg/mL (≈ 0.863 µM)	3.1 µg/mL (≈ 6.69 µM)	> 200 µg/mL	1.6 µg/mL (≈ 3.45 µM)	4 mg/kg	0.1 µg/mL (≈ 0.216 µM)	6.3 µg/mL (≈ 13.6 µM)	3.1 µg/mL (≈ 6.69 µM)	1.6 µg/mL (≈ 3.45 µM)	12.5 µg/mL (≈ 27 µM)	25 µg/mL (≈ 53.9 µM)	8.7 mg/kg	> 200 µg/mL	12.5 µg/mL (≈ 27 µM)	–
